This passage reports EC50 and Emax results from patent US10457703B2, “Bile acid derivatives as FXR/TGR5 agonists and methods of use thereof” (ENANTA PHARMACEUTICALS, INC., priority 2015, dated 2019).

For this assay, the target named is human FXR (NR1H4) (Homo sapiens (Human), UniProt Q96RI1). Kind of assay: Human FXR (NR1H4) Assay (Gal4 promoter driven luciferase reporter, Indigo Bioscience kit).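 On Efficacy (%): 100% equals the efficacy of CDCA; efficacy normalized to CDCA set as 100%.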 The class given is cell-based. As to conditions: for EC50: Human FXR (NR1H4) Assay, potency ranges; for Emax: read-out: Efficacy (%). In a few lines:
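CHO reporter cells expressing human FXR with an FXR-responsive luciferase reporter, treated with compound doses at 0.2% DMSO. Incubation lasted 22 h at 37 °C before luciferase detection reagent was added. Luminescence was then read.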
A general note: A reporter such as luciferase makes a cellular process visible.

Where only a bound is given, the exact number is not on record here.

Sequence of human FXR (NR1H4) (Q96RI1 whole entry, the tested form may be a part): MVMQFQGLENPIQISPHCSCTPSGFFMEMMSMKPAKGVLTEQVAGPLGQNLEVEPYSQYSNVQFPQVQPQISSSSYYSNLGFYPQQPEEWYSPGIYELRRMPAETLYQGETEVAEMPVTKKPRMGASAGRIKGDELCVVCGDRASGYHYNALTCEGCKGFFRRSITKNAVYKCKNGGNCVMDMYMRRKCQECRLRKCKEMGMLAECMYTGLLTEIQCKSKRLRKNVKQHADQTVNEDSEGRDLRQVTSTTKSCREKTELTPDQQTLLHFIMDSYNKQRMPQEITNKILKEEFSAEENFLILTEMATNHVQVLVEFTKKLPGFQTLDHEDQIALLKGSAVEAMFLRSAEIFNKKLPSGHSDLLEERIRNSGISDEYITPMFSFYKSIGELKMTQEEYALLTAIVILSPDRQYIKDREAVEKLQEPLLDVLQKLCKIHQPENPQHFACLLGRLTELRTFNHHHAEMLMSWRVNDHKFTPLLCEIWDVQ

Usually EC50 stands for the concentration needed to bring the measured effect to its halfway point. The low end stands for an effect from little substance, the high end for a need for much substance. As to `CC[C@H]1[C@@H](O)[C@@H]2[C@H](CC[C@]3(C)[C@@H]([C@H](C)CCOC(=O)NS(=O)(=O)c4cccc5ccccc45)CC[C@@H]23)[C@@]2(C)CC[C@@H](O)C[C@@H]12` [Example 81], the EC50 was under 100 nM and the Emax stood at 372%.

With `CC[C@H]1[C@@H](O)[C@@H]2[C@H](CC[C@]3(C)[C@@H]([C@H](C)COC(=O)NS(=O)(=O)c4ccc(N5CCCC5)nc4)CC[C@@H]23)[C@@]2(C)CC[C@@H](O)C[C@@H]12` [Example 44-b], the EC50 was under 100 nM and the Emax was found to be 216%.

`CC[C@H]1[C@@H](O)[C@@H]2[C@H](CC[C@]3(C)[C@@H]([C@H](C)CCCOC(=O)NS(=O)(=O)N(C)C)CC[C@@H]23)[C@@]2(C)CC[C@@H](O)C[C@@H]12` [Example 118]: the EC50 is 100 to 1000 nM and the Emax was determined as 367%.

`CC[C@H]1[C@@H](O)[C@@H]2[C@H](CC[C@]3(C)[C@@H]([C@H](C)COC(=O)NS(=O)(=O)c4ccc(-c5ncco5)cc4)CC[C@@H]23)[C@@]2(C)CC[C@@H](O)C[C@@H]12` [Example 44-p]: the EC50 was under 100 nM and the Emax is 218%.

In the case of `CC[C@H]1[C@@H](O)[C@@H]2[C@H](CC[C@]3(C)[C@@H]([C@H](C)CCOC(=O)NS(=O)(=O)c4ccccn4)CC[C@@H]23)[C@@]2(C)CC[C@@H](O)C[C@@H]12` [Example 72], the EC50 is 1000 to 10000 nM and the Emax was 305%.

As for `CC[C@H]1[C@@H](O)[C@@H]2[C@H](CC[C@]3(C)[C@@H]([C@H](C)CCOC(=O)N4CCC(Cc5ccccc5)CC4)CC[C@@H]23)[C@@]2(C)CC[C@@H](O)C[C@@H]12` [Example 161], the EC50 was 100 to 1000 nM and the Emax amounted to 226%.

Turning to `CC[C@H]1[C@@H](O)[C@@H]2[C@H](CC[C@]3(C)[C@@H]([C@H](C)CCOC(=O)N4CC(=O)NS4(=O)=O)CC[C@@H]23)[C@@]2(C)CC[C@@H](O)C[C@@H]12` [Example 110], the EC50 fell in the range of 1000 to 10000 nM and the Emax stood at 28%.

For the molecule `CCCCCNC(=O)OCC[C@@H](C)[C@H]1CC[C@H]2[C@@H]3[C@H](O)[C@H](CC)[C@@H]4C[C@H](O)CC[C@]4(C)[C@H]3CC[C@]12C` [Example 150], the EC50 lay within 100 to 1000 nM and the Emax amounted to 303%.

In the case of `CC[C@H]1[C@@H](O)[C@@H]2[C@H](CC[C@]3(C)[C@@H]([C@H](C)CCOC(=O)NS(C)(=O)=O)CC[C@@H]23)[C@@]2(C)CC[C@@H](O)C[C@@H]12` [Example 97], the EC50 is 100 to 1000 nM and the Emax was 245%.

Consider `CC[C@H]1[C@@H](O)[C@@H]2[C@H](CC[C@]3(C)[C@@H]([C@H](C)CCCOC(=O)N(CC)CC)CC[C@@H]23)[C@@]2(C)CC[C@@H](O)C[C@@H]12` [Example 132], for which the EC50 was in the range of 1000 to 10000 nM and the Emax worked out at 205%.

As for `CC[C@H]1[C@@H](O)[C@@H]2[C@H](CC[C@]3(C)[C@@H]([C@H](C)CCOC(=O)N4CCCC4c4cccc(Cl)c4)CC[C@@H]23)[C@@]2(C)CC[C@@H](O)C[C@@H]12` (some centres unmarked) [Example 184], the EC50 was 1000 to 10000 nM and the Emax came to 213%.

For the molecule `CC[C@H]1[C@@H](O)[C@@H]2[C@H](CC[C@]3(C)[C@@H]([C@H](C)CCOC(=O)NCCSC)CC[C@@H]23)[C@@]2(C)CC[C@@H](O)C[C@@H]12` [Example 140], the EC50 lay within 100 to 1000 nM and the Emax was 246%.

On to `CC[C@H]1[C@@H](O)[C@@H]2[C@H](CC[C@]3(C)[C@@H]([C@H](C)CCCOC(=O)N4CCCC4)CC[C@@H]23)[C@@]2(C)CC[C@@H](O)C[C@@H]12` [Example 131], for which the EC50 was in the range of 100 to 1000 nM and the Emax stood at 202%.

Turning to `CC[C@H]1[C@@H](O)[C@@H]2[C@H](CC[C@]3(C)[C@@H]([C@H](C)CCOC(=O)NCCc4ccc(OC)c(OC)c4)CC[C@@H]23)[C@@]2(C)CC[C@@H](O)C[C@@H]12` [Example 144], the EC50 lay within 100 to 1000 nM and the Emax was found to be 229%.

As to `CC[C@H]1[C@@H](O)[C@@H]2[C@H](CC[C@]3(C)[C@@H]([C@H](C)CCOC(=O)Nc4ccc(C(C)(C)C)cc4)CC[C@@H]23)[C@@]2(C)CC[C@@H](O)C[C@@H]12` [Example 166], the EC50 lay within 1000 to 10000 nM and the Emax was found to be 30%.

Take `CC[C@H]1[C@@H](O)[C@@H]2[C@H](CC[C@]3(C)[C@@H]([C@H](C)CCOC(=O)N4C[C@@H](C)O[C@@H](C)C4)CC[C@@H]23)[C@@]2(C)CC[C@@H](O)C[C@@H]12` [Example 182]: the EC50 lay in the range of 100 to 1000 nM and the Emax worked out at 419%.

On to `CC[C@H]1[C@@H](O)[C@@H]2[C@H](CC[C@]3(C)[C@@H]([C@H](C)CCOC(=O)NS(=O)(=O)C(C)(C)C)CC[C@@H]23)[C@@]2(C)CC[C@@H](O)C[C@@H]12` [Example 48], for which the EC50 is under 100 nM and the Emax is 282%.

As for `CC[C@H]1[C@@H](O)[C@@H]2[C@H](CC[C@]3(C)[C@@H]([C@H](C)CCOC(=O)NS(=O)(=O)C(F)(F)F)CC[C@@H]23)[C@@]2(C)CC[C@@H](O)C[C@@H]12` [Example 108], the EC50 fell in the range of 1000 to 10000 nM and the Emax amounted to 309%.

For the molecule `CC[C@H]1[C@@H](O)[C@@H]2[C@H](CC[C@]3(C)[C@@H]([C@H](C)CCOC(=O)NC4CCCC4)CC[C@@H]23)[C@@]2(C)CC[C@@H](O)C[C@@H]12` [Example 134], the EC50 is 100 to 1000 nM and the Emax turned out to be 267%.

As to `CC[C@H]1[C@@H](O)[C@@H]2[C@H](CC[C@]3(C)[C@@H]([C@H](C)CCOC(=O)NS(=O)(=O)c4ccc(C(C)(C)C(=O)OC)cc4)CC[C@@H]23)[C@@]2(C)CC[C@@H](O)C[C@@H]12` [Example 55], the EC50 is under 100 nM and the Emax was 258%.

Take `CC[C@H]1[C@@H](O)[C@@H]2[C@H](CC[C@]3(C)[C@@H]([C@H](C)CCOC(=O)NS(=O)(=O)C(C)C)CC[C@@H]23)[C@@]2(C)CC[C@@H](O)C[C@@H]12` [Example 75]: the EC50 was under 100 nM and the Emax turned out to be 386%.

Take `CC[C@H]1[C@@H](O)[C@@H]2[C@H](CC[C@]3(C)[C@@H]([C@H](C)COC(=O)NS(=O)(=O)c4ccc(N5CCC(C)(C)CC5)cc4)CC[C@@H]23)[C@@]2(C)CC[C@@H](O)C[C@@H]12` [Example 20]: the EC50 was under 100 nM and the Emax was found to be 203%.

Consider `CC[C@H]1[C@@H](O)[C@@H]2[C@H](CC[C@]3(C)[C@@H]([C@H](C)CCOC(=O)N4CCC(CO)(CCl)CC4)CC[C@@H]23)[C@@]2(C)CC[C@@H](O)C[C@@H]12` [Example 183], for which the EC50 was under 100 nM and the Emax was determined as 451%.

For `CC[C@H]1[C@@H](O)[C@@H]2[C@H](CC[C@]3(C)[C@@H]([C@H](C)CCOC(=O)NCCc4cccs4)CC[C@@H]23)[C@@]2(C)CC[C@@H](O)C[C@@H]12` [Example 143], the EC50 fell in the range of 100 to 1000 nM and the Emax was found to be 202%.

For the molecule `CC[C@H]1[C@@H](O)[C@@H]2[C@H](CC[C@]3(C)[C@@H]([C@H](C)CCOC(=O)NS(=O)(=O)c4cccnc4)CC[C@@H]23)[C@@]2(C)CC[C@@H](O)C[C@@H]12` [Example 95], the EC50 fell in the range of 1000 to 10000 nM and the Emax was found to be 420%.

For the molecule `CC[C@H]1[C@@H](O)[C@@H]2[C@H](CC[C@]3(C)[C@@H]([C@H](C)CCOC(=O)NS(=O)(=O)c4ccc5c(c4)CCC5)CC[C@@H]23)[C@@]2(C)CC[C@@H](O)C[C@@H]12` [Example 67], the EC50 was under 100 nM and the Emax amounted to 290%.

On to `CC[C@H]1[C@@H](O)[C@@H]2[C@H](CC[C@]3(C)[C@@H]([C@H](C)CCCOC(=O)NS(C)(=O)=O)CC[C@@H]23)[C@@]2(C)CC[C@@H](O)C[C@@H]12` [Example 113], for which the 50% effective concentration (EC50) lay within 1000 to 10000 nM and the Emax amounted to 130%.

In the case of `CC[C@H]1[C@@H](O)[C@@H]2[C@H](CC[C@]3(C)[C@@H]([C@H](C)COC(=O)NS(=O)(=O)c4ccc5ccccc5c4)CC[C@@H]23)[C@@]2(C)CC[C@@H](O)C[C@@H]12` [Example 12], the EC50 is under 100 nM and the Emax was 217%.

Consider `CC[C@H]1[C@@H](O)[C@@H]2[C@H](CC[C@]3(C)[C@@H]([C@H](C)CCOC(=O)N4CCCS4(=O)=O)CC[C@@H]23)[C@@]2(C)CC[C@@H](O)C[C@@H]12` [Example 74], for which the EC50 lay in the range of 100 to 1000 nM and the Emax worked out at 358%.

As to `CC[C@H]1[C@@H](O)[C@@H]2[C@H](CC[C@]3(C)[C@@H]([C@H](C)CCOC(=O)N(CC)CC)CC[C@@H]23)[C@@]2(C)CC[C@@H](O)C[C@@H]12` [Example 163], the EC50 lay in the range of 100 to 1000 nM and the Emax worked out at 266%.

Take `CC[C@H]1[C@@H](O)[C@@H]2[C@H](CC[C@]3(C)[C@@H]([C@H](C)CCOC(=O)NS(=O)(=O)CC(C)(C)C)CC[C@@H]23)[C@@]2(C)CC[C@@H](O)C[C@@H]12` [Example 103]: the EC50 was under 100 nM and the Emax came to 294%.

Consider `CC[C@H]1[C@@H](O)[C@@H]2[C@H](CC[C@]3(C)[C@@H]([C@H](C)COC(=O)NS(=O)(=O)c4ccc(OC)cc4)CC[C@@H]23)[C@@]2(C)CC[C@@H](O)C[C@@H]12` [Example 44-k], for which the EC50 was under 100 nM and the Emax amounted to 158%.

In the case of `CC[C@H]1[C@@H](O)[C@@H]2[C@H](CC[C@]3(C)[C@@H]([C@H](C)CCOC(=O)N4CCCCS4(=O)=O)CC[C@@H]23)[C@@]2(C)CC[C@@H](O)C[C@@H]12` [Example 104-e], the EC50 lay within 100 to 1000 nM and the Emax was found to be 239%.

With `CC[C@H]1[C@@H](O)[C@@H]2[C@H](CC[C@]3(C)[C@@H]([C@H](C)CCOC(=O)N4CCC(C(N)=O)CC4)CC[C@@H]23)[C@@]2(C)CC[C@@H](O)C[C@@H]12` [Example 171], the EC50 was in the range of 100 to 1000 nM and the Emax is 179%.
